Target: T1, IRAK4 (Homo sapiens, UniProt Q9NWZ3)
T1 sequence (Q9NWZ3 1-460): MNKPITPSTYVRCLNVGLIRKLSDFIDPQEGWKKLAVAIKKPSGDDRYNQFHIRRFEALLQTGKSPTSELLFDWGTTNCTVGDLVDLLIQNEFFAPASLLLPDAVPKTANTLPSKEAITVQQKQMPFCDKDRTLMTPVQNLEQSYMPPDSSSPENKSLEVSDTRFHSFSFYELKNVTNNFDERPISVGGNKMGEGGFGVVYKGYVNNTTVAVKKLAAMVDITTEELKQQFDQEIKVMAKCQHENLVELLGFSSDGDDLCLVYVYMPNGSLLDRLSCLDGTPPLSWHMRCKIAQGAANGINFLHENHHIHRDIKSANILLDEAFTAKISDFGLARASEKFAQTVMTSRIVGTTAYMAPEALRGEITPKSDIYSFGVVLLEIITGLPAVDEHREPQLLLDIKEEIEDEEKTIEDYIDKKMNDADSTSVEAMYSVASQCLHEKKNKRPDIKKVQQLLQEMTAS
Assay: THP-1 degradation assay (western blot, % IRAK4 degraded after 24 hours)
Format: cell-based
Parameters: endogenous in cells
Details: THP-1 cells
Experimental: Compounds were reconstituted in DMSO to make stock solutions at concentration of 60 mM. THP-1 and OCI-LY10 cells were maintained in RPMI-1640 medium containing 10% FBS, 0.5 μM 2-ME or 20% FBS, 55 μM 2-ME, and 1% L-Glutamine respectively.
Cells were seeded into 6-well plates with 5e6 cells per well. 200 μL of diluted compounds were added to cells to the final concentration of 0.003-10 μM. After 4 or 24 hour-incubation at 37° C., cells were collected into 2 mL Eppendorf tubes and centrifuged at 1,000 rpm for 5 min. The cell pellets were washed with 1×DPBS once and resuspended in 60 μL lysis buffer. The cells were lysed on ice for 10 min, then centrifuged at 14,000 rpm for 10 min at 4° C. and the supernatants were collected for western blots. For THP-1 cells, the lysis buffer contained 40 mM pH 7.4 HEPES, 140 mM NaCl, 2.5 mM EDTA, 1% NP-40, 0.1% SDS, and protease inhibitor cocktail (Roche, Cat. No. 05892791001). For OCI-LY10 cells, RIPAbuffer (Thermo Fisher, 89900) with Halt Protease and Phosphatase Inhibitor Cocktail (Thermo Fisher, 78446) was applied.
The protein concentration of cell lysates was quantified with Pierce™ BCA Protein Assay Kit (Pierce, 23227). Albumin standards at different concentrations were prepared, involving 2,000 ug/mL, 1,500 ug/mL, 1,000 ug/mL, 750 ug/mL, 500 ug/mL, 250 ug/mL, 125 ug/mL, and 25 ug/mL. BCA working reagents were prepared by mixing BCA reagent A with reagent B in 50:1 ratio. 200 μL of the BCA working reagents were added to 25 μL of BCA standard or cell lysates in microplate, and mixed thoroughly on a plate shaker for 30 seconds. After incubation at 37° C. for 30 min, the absorbance of samples at 562 nm were measured with EnVision Plate Reader.
Protein lysates were prepared in NuPAGE™ LDS sample buffer and NuPAGE™ sample reducing agent, and incubated at 95° C. for 5 min. For western blots, 20-25 μg of total proteins were resolved in 4-12% Bis-Tris gels (Introgen, WG1403A) or 10% Bis-Tris Midi gels (Invitrogen, WG1202BOX) running with 1×MOPS SDS running buffer (Invitrogen, NP0001) or 1×MES SDS running buffer (Invitrogen, NP0002). The proteins were transferred to low fluorescence PVDF membranes using the Trans-Blot Turbo Transfer System. Membranes were then blocked in Odyssey blocking buffer at RT for 1 h followed by primary incubation at 4° C. overnight. The primary antibodies were IRAK1 rabbit monoclonal antibody (CST, #4504S, 1:500), IRAK3 rabbit polyclonal antibody (CST, #4369, 1:500), IRAK4 rabbit polyclonal antibody (CST, #4363S, 1:1,000), MyD88 rabbit monoclonal antibody (Abcam, Ab133739, 1:2,000), j3-actin mouse monoclonal antibody (Sigma, A5441, 10,000), and Gapdh mouse monoclonal antibody (Millipore, MAB374, 1:5,000). Membranes were washed three times with 1×TBST, and then incubated with IR Dye 800 CW Goat anti-rabbit (Licor, #926-32211) and IR Dye 700 CW Goat anti-mouse (Licor, #926-68070) secondary antibodies in 1:10,000 dilution at RT for 1 h. The western blot images were obtained using Odyssey Imaging System.
THP-1 results at 24 hours. The letter codes indicate the percentage of IRAK4 degraded after 24 hours: A (>50% degradation), B (>20-50% degradation) and C (<20% degradation)

THP-1 24 h % IRAK4 Degradation | SMILES
B (>20-50% degradation) | O=C1CCC(N2C(=O)c3cccc(NCCOCCOCCOCCOCCN4CCN(CCOCC(F)CNC(=O)c5cnc(Nc6ccc7cnccc7n6)cc5NC5CC5)CC4)c3C2=O)C(=O)N1 (centres unmarked) [I-47]
B (>20-50% degradation) | O=C1CCC(N2C(=O)c3cccc(NCCOCCOCCOCCOCCOCC(F)CNC(=O)c4cnc(Nc5ccc6cnccc6n5)cc4NC4CC4)c3C2=O)C(=O)N1 (centres unmarked) [I-48]
B (>20-50% degradation) | O=C1CCC(N2C(=O)c3cccc(NCCOCCOCCOCC(F)CNC(=O)c4cnc(Nc5ccc6cnccc6n5)cc4NC4CC4)c3C2=O)C(=O)N1 (centres unmarked) [I-49]
B (>20-50% degradation) | O=C1CCC(N2C(=O)c3cccc(NCCOCCOCCOCCOCC(F)CNC(=O)c4cnc(Nc5ccc6cnccc6n5)cc4NC4CC4)c3C2=O)C(=O)N1 (centres unmarked) [I-50]
C (<20% degradation) | O=C1CCC(N2C(=O)c3cccc(NCCOCCOCCOCCOCCOCCOCC(F)CNC(=O)c4cnc(Nc5ccc6cnccc6n5)cc4NC4CC4)c3C2=O)C(=O)N1 (centres unmarked) [I-51]
C (<20% degradation) | O=C1CCC(N2C(=O)c3cccc(NCCOCCOCCOCCOCCOCC(F)CNC(=O)c4cnc(Nc5ccc6ncsc6c5)cc4NC4CC4)c3C2=O)C(=O)N1 (centres unmarked) [I-52]
C (<20% degradation) | CC(C)(OCC(=O)NCCOCCOCCNc1cccc2c1C(=O)N(C1CCC(=O)NC1=O)C2=O)C(F)CNC(=O)c1cnc(Nc2ccc3cnccc3n2)cc1NC1CC1 (centres unmarked) [I-55]
C (<20% degradation) | N#Cc1cnc(Nc2cc(NC3CC3)c(C(=O)NCC(F)COCCOCCOCCNc3cccc4c3C(=O)N(C3CCC(=O)NC3=O)C4=O)cn2)c(F)c1 (centres unmarked) [I-58]
C (<20% degradation) | O=C(COc1cccc2c1C(=O)N(C1CCC(=O)NC1=O)C2=O)NCCOCCOCCOCC(F)CNC(=O)c1cnc(Nc2ccc3cnccc3n2)cc1NC1CC1 (centres unmarked) [I-96]
B (>20-50% degradation) | O=C(COc1cccc2c1C(=O)N(C1CCC(=O)NC1=O)C2=O)NCCOCCOCCOCCOCCOCC(F)CNC(=O)c1cnc(Nc2ccc3cnccc3n2)cc1NC1CC1 (centres unmarked) [I-97]
B (>20-50% degradation) | O=C(COc1cccc2c1C(=O)N(C1CCC(=O)NC1=O)C2=O)NCCOCCOCCOCCOCC(F)CNC(=O)c1cnc(Nc2ccc3cnccc3n2)cc1NC1CC1 (centres unmarked) [I-98]
C (<20% degradation) | O=C(COc1cccc2c1C(=O)N(C1CCC(=O)NC1=O)C2=O)NCCOCCOCC(F)CNC(=O)c1cnc(Nc2ccc3cnccc3n2)cc1NC1CC1 (centres unmarked) [I-99]
B (>20-50% degradation) | O=C(COc1cccc2c1C(=O)N(C1CCC(=O)NC1=O)C2=O)NCCCOCCCOCC(F)CNC(=O)c1cnc(Nc2ccc3cnccc3n2)cc1NC1CC1 (centres unmarked) [I-100]
B (>20-50% degradation) | Cc1ncsc1-c1ccc(CNC(=O)[C@@H]2C[C@@H](O)CN2C(=O)[C@@H](NC(=O)COCCOCCOCCOCCOCCOCC(F)CNC(=O)c2cnc(Nc3ccc4cnccc4n3)cc2NC2CC2)C(C)(C)C)cc1 (some centres unmarked) [I-119]
C (<20% degradation) | Cc1ncsc1-c1ccc(CNC(=O)[C@@H]2C[C@@H](O)CN2C(=O)[C@@H](NC(=O)COCCOCCOCC(F)CNC(=O)c2cnc(Nc3ccc4cnccc4n3)cc2NC2CC2)C(C)(C)C)cc1 (some centres unmarked) [I-120]
C (<20% degradation) | Cc1ncsc1-c1ccc(CNC(=O)C2C[C@@H](O)CN2C(=O)[C@@H](NC(=O)COCCOCCOC(C)C(F)CNC(=O)c2cnc(-n3ncc4cc(C#N)cnc43)cc2NC2CC2)C(C)(C)C)cc1 (some centres unmarked) [I-122]
A (>50% degradation) | COc1cc(Nc2nc(N[C@H]3CCCC[C@H]3N)n3ccnc3c2C(N)=O)cc(OCCOCCOCCOCC(=O)N[C@H](C(=O)N2C[C@H](O)C[C@H]2C(=O)NCc2ccc(-c3scnc3C)cc2)C(C)(C)C)c1 [I-162, 5-[[(1S,2R)-2-aminocyclohexyl]amino]-7-[3-[2-[2-[2-[2-[[(1S)-1-[(2S,4R)-4-hydroxy-2-[[4-(4-methylthiazol-5-yl)phenyl]methylcarbamoyl]pyrrolidine-1-carbonyl]-2,2-dimethyl-propyl]amino]-2-oxo-ethoxy]ethoxy]ethoxy]ethoxy]-5-methoxy-anilino]imidazo[1,2-c]pyrimidine-8-carboxamide]
C (<20% degradation) | COc1cc(Nc2nc(N[C@H]3CCCC[C@H]3N)n3ccnc3c2C(N)=O)cc(OCCOCCOCCOCCOCCOCC(=O)N[C@H](C(=O)N2C[C@H](O)C[C@H]2C(=O)NCc2ccc(-c3scnc3C)cc2)C(C)(C)C)c1 [I-163]
C (<20% degradation) | COc1cc(Nc2nc(N[C@H]3CCCC[C@H]3N)n3ccnc3c2C(N)=O)cc(OC)c1OCCOCCOCCOCCOCC(=O)N[C@H](C(=O)N1C[C@H](O)C[C@H]1C(=O)NCc1ccc(-c2scnc2C)cc1)C(C)(C)C [I-164]
C (<20% degradation) | COc1cc(Nc2nc(N[C@H]3CCCC[C@H]3N)n3ccnc3c2C(N)=O)cc(OC)c1OCCOCCOCCOCC(=O)N[C@H](C(=O)N1C[C@H](O)C[C@H]1C(=O)NCc1ccc(-c2scnc2C)cc1)C(C)(C)C [I-165]
C (<20% degradation) | Cc1ncsc1-c1ccc(CNC(=O)[C@@H]2C[C@@H](O)CN2C(=O)[C@@H](NC(=O)COCCOCCn2ccc3c(Nc4nc(N[C@@H]5CCCC[C@@H]5N)cc5[nH]cnc(=O)c45)cccc32)C(C)(C)C)cc1 [I-189, (2S,4R)-1-[(2S)-2-[[2-[2-[2-[4-[[7-[[(1R,2S)-2-aminocyclohexyl]amino]-4-oxo-3H-pyrido[4,3-d]pyrimidin-5-yl]amino]indol-1-yl]ethoxy]ethoxy]acetyl]amino]-3,3-dimethyl-butanoyl]-4-hydroxy-N-[[4-(4-methylthiazol-5-yl)phenyl]methyl]pyrrolidine-2-carboxamide]
C (<20% degradation) | NC(=O)c1nnc(N[C@@H]2CCCC[C@@H]2N)nc1Nc1cccc2c1ccn2CCOCCOCCOCCOCCNc1cccc2c1C(=O)N(C1CCC(=O)NC1=O)C2=O (stereo partly drawn) [I-194, 3-[[(1R,2S)-2-aminocyclohexyl]amino]-5-[[1-[2-[2-[2-[2-[2-[[2-(2,6-dioxo-3-piperidyl)-1,3-dioxo-isoindolin-4-yl]amino]ethoxy]ethoxy]ethoxy]ethoxy]ethyl]indol-4-yl]amino]-1,2,4-triazine-6-carboxamide]
C (<20% degradation) | Cc1ncsc1-c1ccc(CNC(=O)[C@@H]2C[C@@H](O)CN2C(=O)[C@@H](NC(=O)COCCOCCOCCOCCNC(=O)Cn2ccc3c(Nc4nc(N[C@@H]5CCCC[C@@H]5N)cc5[nH]cnc(=O)c45)cccc32)C(C)(C)C)cc1 [I-195, (2S,4R)-1-[(2S)-2-[2-[2-[2-[2-[2-[[2-[4-[[7-[[(1R,2S)-2-Aminocyclohexylamino]-4-oxo-3H-pyrido[4,3-d]pyrimidin-5-yl]amino]indol-1-yl]acetyl]amino]ethoxy]ethoxy]ethoxy]ethoxy]acetyl]amino]-3,3-dimethyl-butanoyl]-4-hydroxy-N-[[4-(4-methylthiazol-5-yl)phenyl]methyl]pyrrolidine-2-carboxamide]
